pEC50: −log10 of the molar value. Where “and” joins values, the source holds several entries; their conditions need not be identical. Equal values may be shown once. Read-outs that look alike come from different tables or passages of the source. Bridge positions count the residues as written; N and C are the ends. Square brackets hold non-standard residues; d marks the D form. Peptide text beside a SMILES is read from it. S5 = C=CCCC[C@](C)(N)C(=O)O; Nle = CCCC[C@H](N)C(=O)O; Aib = CC(C)(N)C(=O)O
Tests used:
H1N1 California/07/2009 [1] = assay: microbe, parasite or virus in culture; format: cell-based, influenza A virus
H3N2 Perth/16/2009 [2] = assay: microbe, parasite or virus in culture; format: cell-based, influenza A virus
H1N1 California/07/2009 [3] = assay: microbe, parasite or virus in culture; format: cell-based, influenza A virus; conditions: read-out: EC50 (μM) H1N1 California/07/2009
H3N2 Perth/16/2009 [4] = assay: microbe, parasite or virus in culture; format: cell-based, influenza A virus; remark: listed apart in the source
[5] = test system: H1N1 A/Solomon Island/03/2006; format: cell-based, influenza A virus; conditions: read-out: EC50 (μM), Cytopathic effect by Neutral Red
H1N1 A/Brisbane/59/2007 = assay: Cytopathic effect (CPE) inhibition in MDCK cells, neutral red; format: cell-based, influenza A virus
[6] = test system: H5N1 A/Hong Kong/213/2003; assay: microbe, parasite or virus in culture; format: cell-based, influenza A virus
H7N9 A/Anhui/1/2013 = assay: microbe, parasite or virus in culture; format: cell-based, influenza A virus
[7] = test system: Influenza B Florida/04/2006; assay: Cytopathic effect (CPE) inhibition in MDCK cells, neutral red; format: cell-based
[8] = test system: Influenza B Brisbane/60/2008; assay: as above; format: cell-based
[9] = test system: influenza virus, various viral strains; assay: Influenza antiviral evaluation assay (CPE, neutral red dye uptake) in MDCK cells against various viral strains (Tables 8, 9); format: cell-based
[10] = test system: influenza virus, various viral strains; format: cell-based
[11] = test system: Influenza A H3N2 Influenza A/Brisbane/10/2007; assay: microbe, parasite or virus in culture; format: cell-based, influenza A virus
[12] = test system: Influenza A H1N1 Influenza A/California/7/2009; assay: microbe, parasite or virus in culture; format: cell-based, influenza A virus
[13] = test system: Influenza B/Brisbane/60/2008; assay: microbe, parasite or virus in culture; format: cell-based
[14] = test system: Influenza A H1N1 Influenza A/Texas/4/2009; assay: microbe, parasite or virus in culture; format: cell-based, influenza A virus
H1N1 A/PR/8/34 = conditions: read-out: EC50 (μM), Cytopathic effect by Neutral Red
[15] = mouse, in vivo
in vitro = conditions: dog
[16] = read-out: EC50 (μM) H3N2 Perth/16/2009
[17] = read-out: EC50 (μM), Cytopathic effect by Neutral Red

CCCC[C@H](NC(C)=O)C(=O)N[C@@H](CC(=O)O)C(=O)N[C@H](C(=O)N[C@@H](CC(N)=O)C(=O)N[C@@]1(C)CCCC=CCCC[C@@](C)(C(=O)N[C@@H](CC(C)C)C(=O)N[C@@H](C)C(=O)N[C@H](C(=O)NC(C)(C)C(=O)N[C@@H](C)C(=O)N[C@@H](CCC(N)=O)C(N)=O)C(C)C)NC(=O)[C@H](CC(C)C)NC(=O)[C@H](CC(C)C)NC(=O)[C@H]([C@@H](C)O)NC1=O)C(C)C [SP-6] (Ac-[Nle]DVN[S5]TLL[S5]LAV[Aib]AQ-NH2; staple 5-9) gave an EC50 (H1N1 California/07/2009 [1]; read-out: EC50 (μM) H1N1 California/07/2009) of 10 to 25 µM, an EC90 (H1N1 California/07/2009 [1]; read-out: EC90) of over 36 µM and an EC90 (H3N2 Perth/16/2009 [2]) of 22 µM. The EC50 (H3N2 Perth/16/2009 [2]; [16]) was 25 to 50 µM, the EC50 (H1N1 California/07/2009 [3]) was 10 to 25 µM and the EC50 (H3N2 Perth/16/2009 [4]; [16]) was 25 to 50 µM. For the same compound, the EC50 (H3N2 Perth/16/2009 [4]; [17]) was 1.5 to 10 µM, the EC50 [5] was 1.5 to 10 µM and < 1.5 µM and the pEC50 (H1N1 A/Brisbane/59/2007; read-out: EC50) was 5.25 and 5.26. It also gave an EC50 (H1N1 A/Brisbane/59/2007; [17]) of 1.5 to 10 µM, a pEC50 ([6]; read-out: EC50) of under 4.00 and an EC50 [6, 17] of over 50 µM. It also gave a pEC50 (H7N9 A/Anhui/1/2013; read-out: EC50) of under 4.00, an EC50 (H7N9 A/Anhui/1/2013; [17]) of over 50 µM and a pEC50 ([7]; read-out: EC50) of 4.74. It also gave an EC50 [7, 17] of 10 to 25 µM, a pEC50 ([8]; read-out: EC50) of 5.15 and an EC50 [8, 17] of 1.5 to 10 µM. The “antiviral activity across influenza strains” value [9] was “broad antiviral activity”, the pEC50 [10] was under 4.00 and the EC90 [10] was > 100 µM and 66 µM and 65 µM. It also gave a pEC50 ([11]; read-out: EC50) of under 4.00, an EC90 ([11]; read-out: EC90) of over 100 µM and a pEC50 ([12]; read-out: EC50) of under 4.00. The EC90 ([12]; read-out: EC90) was over 100 µM, the pEC50 [13] was under 4.00 and the EC90 [13] was over 100 µM. The pEC50 ([14]; read-out: EC50) was under 4.00, the EC90 ([14]; read-out: EC90) was over 100 µM and the EC50 (H1N1 A/PR/8/34) was 10 to 25 µM. For the same compound, the survival [15] was “all mice survived”, the CC50 (in vitro; CC50) was over 100 µM and the CC50 (in vitro; CC50 (μM) H1N1 California/07/2009, Cell cytotoxicity (CC), run with H1N1 California/07/2009) was over 100 µM. It also gave a CC50 (in vitro; CC50 (μM) H3N2 Perth/16/2009, Cell cytotoxicity (CC), run with H3N2 Perth/16/2009) of over 100 µM, a CC50 (in vitro; CC50, MDCK cells, run with Influenza A H1N1 Brisbane/59/2007, Neutral Red) of over 100 µM and a CC50 (in vitro; CC50, MDCK cells, run with Influenza A H1N1 Brisbane/59/2007, Visual) of over 100 µM. The CC50 (in vitro; CC50, MDCK cells, run with Influenza A H1N1 California/04/2009-M, Neutral Red) was over 100 µM, the CC50 (in vitro; CC50, MDCK cells, run with Influenza A H1N1 California/04/2009-M, Visual) was over 100 µM and the CC50 (in vitro; CC50, MDCK cells, run with Influenza A H1N1 California/07/2009, VYR/Neutral Red) was over 100 µM. For the same compound, the CC50 (in vitro; CC50, MDCK cells, run with Influenza A H1N1 Solomon Is./3/2006-M, Neutral Red) was over 100 µM, the CC50 (in vitro; CC50, MDCK cells, run with Influenza A H1N1 Solomon Is./3/2006-M, Visual) was over 100 µM and the CC50 (in vitro; CC50, MDCK cells, run with Influenza A H1N1 Solomon Is./03/2006, Neutral Red) was over 100 µM. The CC50 (in vitro; CC50, MDCK cells, run with Influenza A H1N1 Solomon Is./03/2006, Visual) was over 100 µM, the CC50 (in vitro; CC50, MDCK cells, run with Influenza A H3N2 Perth/16/2009, Neutral Red) was over 100 µM and the CC50 (in vitro; CC50, MDCK cells, run with Influenza A H3N2 Perth/16/2009, VYR/Neutral Red) was over 100 µM. For the same compound, the CC50 (in vitro; CC50, MDCK cells, run with Influenza A H3N2 Perth/16/2009, Visual) was over 100 µM, the CC50 (in vitro; CC50, MDCK cells, run with Influenza A H3N2 Victoria/3/75-M, Neutral Red) was over 100 µM and the CC50 (in vitro; CC50, MDCK cells, run with Influenza A H3N2 Victoria/3/75-M, Visual) was over 100 µM. The CC50 (in vitro; CC50, MDCK cells, run with Influenza B Brisbane/60/2008, Neutral Red) was over 100 µM, the CC50 (in vitro; CC50, MDCK cells, run with Influenza B Brisbane/60/2008, Visual) was over 100 µM and the CC50 (in vitro; CC50, MDCK cells, run with Influenza B Florida/04/2006, Neutral Red) was 98 µM. For the same compound, the CC50 (in vitro; CC50, MDCK cells, run with Influenza B Florida/04/2006, Visual) was over 100 µM, the CC50 (in vitro; CC50, MDCK cells, run with Influenza B Sichuan/379/99-M, Neutral Red) was over 100 µM and the CC50 (in vitro; CC50, MDCK cells, run with Influenza B Sichuan/379/99-M, Visual) was over 100 µM. For the same compound, the CC50 (in vitro; CC50, run with Influenza A H3N2 Perth/16/2006 (so in the source), Neutral Red) was over 100 µM and the CC50 (in vitro; CC50, run with Influenza A H3N2 Perth/16/2006 (so in the source), Visual) was over 100 µM.

From patent US10059741B2 (priority 2015, dated 2018)
